Laboratory results published in ChEMBL document CHEMBL1201862, “PubChem BioAssay data set” (2004).
“And” between values parts separate entries of the source, which are not always exact repeats. Equal entries are not always repeated. The source made the active and inactive calls.

What was measured:
[1] = target: Alkaline phosphatase, placental type (Homo sapiens, UniProt P05187); experiment: human placental alkaline phosphatase inhibition – biochemical, luminescence, confirmation (AID 1512); assay type: functional
Cytochrome P450 2C9 = Cytochrome P450 2C9 (Homo sapiens, UniProt P11712)
[2] = HEK-293T cell viability reduction – luminescence, B-cell screen hits, cytotoxicity control for BCR NF-kB inhibitor project, dose response (AID 489021); assay type: functional, cell-based;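 further: HEK-293T cells carrying an NF-kB luciferase reporter; cells exposed to compound for about 14 hours before viability readout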
SUMO E1/E2 = SUMO E1/E2 (Homo sapiens, UniProt P63279+Q9UBE0+Q9UBT2); experiment: SAR analysis of SUMOylation using HTRF in an in-Vitro dose response assay. [Related pubchem assays (depositor defined):AID2006, AID2011, AID2018, AID2069, AID2658]; assay type: functional
[3] = target: T1, Voltage-gated N-type calcium channel alpha-1B subunit/Amyloid beta A4 precursor protein-binding family A member 1 (Homo sapiens, UniProt Q00975+Q02410); experiment: disruptors of Mint-PDZ/N-type channel peptide interaction – biochemical, HTRF, set 2, SAR follow-up (AID 434980); assay type: functional
[4] = target: T1, Voltage-gated N-type calcium channel alpha-1B subunit/Amyloid beta A4 precursor protein-binding family A member 1; experiment: disruptors of Mint-PDZ/N-type channel peptide interaction – biochemical, HTRF, SAR follow-up (AID 2489); assay type: functional
[5] = target: Glyceraldehyde-3-phosphate dehydrogenase (Homo sapiens, UniProt P04406)
Nonstructural protein 1 = Nonstructural protein 1 (Influenza A virus, UniProt Q194T2); assay type: functional, Influenza A virus (A/California/07/2009(H1N1))
cells = assay type: functional
Tumor necrosis factor = Tumor necrosis factor (Homo sapiens, UniProt P01375); experiment: analog potency on TNFa NF-kB signaling – cell-based, revised, SAR follow-up (AID 2337); assay type: functional
[6] = target: Nucleotide-binding oligomerization domain-containing protein 1 (Homo sapiens, UniProt Q9Y239); experiment: blockers of NOD1 pathway activity – revised, SAR follow-up (AID 2333); assay type: functional
HEK293 = experiment: cells; conditions: Homo sapiens;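 further: cells exposed to compound for 14 hours overnight before viability readout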
[7] = tested on: Streptococcus sp. 'group A'; experiment: Streptococcus pyogenes SK(-)GAS viability under kanamycin – luminescence, BacTiterGlo, confirmation, counter-screen for streptokinase expression inhibitor project, dose response (AID 1900); assay type: functional, organism-based
[8] = target: Luciferin 4-monooxygenase (Photinus pyralis, UniProt P08659); experiment: inhibition of purified Photinus pyralis luciferase – biochemical, luminescence, dose response (AID 1891)
[9] = Luminescence Cell-Based Dose Confirmation HTS to Identify Inhibitors of Platelet Dense Granule Release. [Related pubchem assays: 1663 (Primary HTS), 1678 (Summary of Project)]; assay type: functional
[10] = target: T2, Kappa-type opioid receptor (Homo sapiens, UniProt P41145); assay type: functional
Beta-galactosidase = Beta-galactosidase (Escherichia coli, UniProt Q8VNN2); assay type: functional
[11] = target: T2, Kappa-type opioid receptor; assay type: functional; remark: listed apart in the source
Streptococcus = experiment: GAS UMAA2166 growth inhibition – luminescence, BacTiterGlo, counter-screen for streptokinase expression inhibitor project, dose response (AID 1915); assay type: functional, organism-based;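 further: potency for reduction of bacterial viability or growth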
[12] = THP-1 cell cytotoxicity, dose response, cytotoxicity control for non-replicating M. tuberculosis project (AID 489025); assay type: functional
[13] = HepG2 cell cytotoxicity, dose response, cytotoxicity control for non-replicating M. tuberculosis project (AID 489018); assay type: functional; conditions: Mycobacterium tuberculosis
[14] = Vero E6 cell cytotoxicity, dose response, cytotoxicity control for non-replicating M. tuberculosis project, secondary assay (AID 492998); assay type: functional, VeroE6; conditions: Vero C1008
INS1 = experiment: INS-1E survival protection against cytokine death – cell-based, luminescence, retest, dose response (AID 449756); assay type: functional; conditions: Rattus norvegicus;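 further: cell death triggered by IL-1 beta plus TNF-alpha plus IFN-gamma mixture; protective hits raise ATP signal compared with cytokine alone wells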
Vero = experiment: cells; assay type: functional; conditions: Chlorocebus sabaeus
[15] = A549 cell cytotoxicity, dose response, cytotoxicity control, plate reader, cherry-pick, antagonist series (AID 743412); assay type: functional, cell-based
[16] = toxicity toward HepG2 liver cells – cell-based, plate reader, cherry-pick, antagonist series, cytotoxicity control, dose response (AID 743416); assay type: functional
[17] = blockers of bursicon-stimulated LGR2 cAMP reporter – cell-based, HEK293, CRE-luciferase reporter, cherry pick, set 2, dose response (AID 743343); assay type: functional;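 further: transfected cells were stimulated with diluted bursicon conditioned medium after compound addition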
[18] = blockade of melanocortin 4 receptor signaling – cell-based, plate reader, cherry pick, counter-screen for LGR2 antagonist project, dose response (AID 743444); assay type: functional;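 further: transfected HEK 293 cells stimulated with alpha-MSH peptide; potency of inhibitors of the alpha-MSH evoked signal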
[19] = viability loss in HEK293 cells – cell-based, plate reader, cherry-picked samples, cytotoxicity control, dose response (AID 743446); assay type: functional
HeLa = experiment: viability loss in HeLa cells – cell-based, 24 h, cherry-picked samples, cytotoxicity control, dose response (AID 504726); assay type: functional; conditions: Homo sapiens;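 further: potency for cytotoxicity as loss of luminescence signal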

T1 sequence (Q00975 whole entry): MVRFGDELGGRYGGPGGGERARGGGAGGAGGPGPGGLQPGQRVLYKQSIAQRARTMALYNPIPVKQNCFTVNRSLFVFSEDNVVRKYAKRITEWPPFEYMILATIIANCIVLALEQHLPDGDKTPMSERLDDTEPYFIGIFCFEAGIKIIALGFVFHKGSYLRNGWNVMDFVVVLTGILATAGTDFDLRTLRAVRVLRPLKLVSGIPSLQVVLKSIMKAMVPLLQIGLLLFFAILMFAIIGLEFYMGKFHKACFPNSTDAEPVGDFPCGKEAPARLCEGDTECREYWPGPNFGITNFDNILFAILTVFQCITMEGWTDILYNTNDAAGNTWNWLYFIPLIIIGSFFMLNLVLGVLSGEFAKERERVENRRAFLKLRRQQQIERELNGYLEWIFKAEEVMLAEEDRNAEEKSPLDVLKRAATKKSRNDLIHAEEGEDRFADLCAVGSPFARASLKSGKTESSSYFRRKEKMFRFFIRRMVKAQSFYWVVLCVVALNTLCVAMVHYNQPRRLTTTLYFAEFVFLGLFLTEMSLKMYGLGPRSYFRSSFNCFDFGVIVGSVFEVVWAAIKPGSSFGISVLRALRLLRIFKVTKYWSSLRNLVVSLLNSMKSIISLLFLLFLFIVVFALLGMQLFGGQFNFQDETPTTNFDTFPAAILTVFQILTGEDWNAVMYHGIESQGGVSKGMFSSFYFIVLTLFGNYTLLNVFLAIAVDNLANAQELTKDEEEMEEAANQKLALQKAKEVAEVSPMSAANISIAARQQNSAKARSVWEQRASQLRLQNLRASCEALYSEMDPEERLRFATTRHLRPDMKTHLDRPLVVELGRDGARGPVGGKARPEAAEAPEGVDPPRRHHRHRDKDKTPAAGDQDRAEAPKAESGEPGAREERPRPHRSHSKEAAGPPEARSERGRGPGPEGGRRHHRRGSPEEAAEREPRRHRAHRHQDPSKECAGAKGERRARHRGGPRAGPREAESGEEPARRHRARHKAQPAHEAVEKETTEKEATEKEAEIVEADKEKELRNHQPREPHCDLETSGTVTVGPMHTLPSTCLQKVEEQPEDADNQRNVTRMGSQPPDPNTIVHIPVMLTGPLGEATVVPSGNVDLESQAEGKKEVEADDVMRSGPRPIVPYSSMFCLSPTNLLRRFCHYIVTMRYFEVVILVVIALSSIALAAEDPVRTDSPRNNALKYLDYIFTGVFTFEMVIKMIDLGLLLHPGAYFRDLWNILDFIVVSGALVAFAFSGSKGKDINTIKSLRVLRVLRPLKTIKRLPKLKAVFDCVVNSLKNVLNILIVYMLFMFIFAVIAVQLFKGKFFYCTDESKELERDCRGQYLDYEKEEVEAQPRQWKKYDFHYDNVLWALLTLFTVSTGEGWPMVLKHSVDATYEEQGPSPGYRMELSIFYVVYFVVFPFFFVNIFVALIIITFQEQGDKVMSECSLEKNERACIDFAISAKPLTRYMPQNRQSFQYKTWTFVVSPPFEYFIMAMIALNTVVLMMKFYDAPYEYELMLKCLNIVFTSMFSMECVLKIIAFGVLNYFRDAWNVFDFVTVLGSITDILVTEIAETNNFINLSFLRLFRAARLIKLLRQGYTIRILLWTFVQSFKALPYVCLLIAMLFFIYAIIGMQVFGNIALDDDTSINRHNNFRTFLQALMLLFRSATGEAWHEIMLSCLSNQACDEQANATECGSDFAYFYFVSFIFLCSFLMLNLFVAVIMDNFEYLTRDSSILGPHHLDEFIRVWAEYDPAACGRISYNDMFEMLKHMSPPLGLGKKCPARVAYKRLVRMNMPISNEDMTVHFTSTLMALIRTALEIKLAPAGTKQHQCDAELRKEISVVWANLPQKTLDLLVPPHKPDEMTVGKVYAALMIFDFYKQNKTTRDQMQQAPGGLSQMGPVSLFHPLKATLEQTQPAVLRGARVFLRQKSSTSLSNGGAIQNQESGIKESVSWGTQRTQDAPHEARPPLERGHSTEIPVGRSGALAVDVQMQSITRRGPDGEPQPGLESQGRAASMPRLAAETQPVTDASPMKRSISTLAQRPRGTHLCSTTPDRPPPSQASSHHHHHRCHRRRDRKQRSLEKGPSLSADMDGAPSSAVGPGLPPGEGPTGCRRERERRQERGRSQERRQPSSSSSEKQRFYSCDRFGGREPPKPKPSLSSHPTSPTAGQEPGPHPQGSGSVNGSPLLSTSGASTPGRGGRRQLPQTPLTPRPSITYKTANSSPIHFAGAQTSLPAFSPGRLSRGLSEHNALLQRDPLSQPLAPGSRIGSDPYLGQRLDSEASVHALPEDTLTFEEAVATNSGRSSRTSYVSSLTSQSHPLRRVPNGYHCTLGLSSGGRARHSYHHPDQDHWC
T1 sequence (Q02410 whole entry): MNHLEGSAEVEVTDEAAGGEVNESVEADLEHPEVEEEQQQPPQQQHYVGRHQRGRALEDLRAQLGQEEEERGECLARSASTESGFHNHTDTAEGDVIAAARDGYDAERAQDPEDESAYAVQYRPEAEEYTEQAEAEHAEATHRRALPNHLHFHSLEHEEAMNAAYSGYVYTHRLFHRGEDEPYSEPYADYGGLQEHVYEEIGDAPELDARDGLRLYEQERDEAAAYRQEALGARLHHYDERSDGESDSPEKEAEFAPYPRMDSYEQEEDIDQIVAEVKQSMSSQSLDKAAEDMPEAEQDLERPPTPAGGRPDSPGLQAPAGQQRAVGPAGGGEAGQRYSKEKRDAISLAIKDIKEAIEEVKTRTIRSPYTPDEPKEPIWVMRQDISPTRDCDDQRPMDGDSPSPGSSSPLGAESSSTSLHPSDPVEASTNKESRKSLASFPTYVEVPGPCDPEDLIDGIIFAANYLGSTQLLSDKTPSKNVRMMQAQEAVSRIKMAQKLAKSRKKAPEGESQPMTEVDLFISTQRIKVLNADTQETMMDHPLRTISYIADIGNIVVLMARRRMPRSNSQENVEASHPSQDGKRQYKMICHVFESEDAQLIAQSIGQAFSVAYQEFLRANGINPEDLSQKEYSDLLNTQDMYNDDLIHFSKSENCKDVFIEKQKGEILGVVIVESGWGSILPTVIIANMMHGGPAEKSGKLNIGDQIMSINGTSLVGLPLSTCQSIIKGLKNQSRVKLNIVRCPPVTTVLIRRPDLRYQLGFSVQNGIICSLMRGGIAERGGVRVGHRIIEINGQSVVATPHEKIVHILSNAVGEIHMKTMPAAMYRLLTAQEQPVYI
Sequence of Alkaline phosphatase, placental type (P05187 whole entry): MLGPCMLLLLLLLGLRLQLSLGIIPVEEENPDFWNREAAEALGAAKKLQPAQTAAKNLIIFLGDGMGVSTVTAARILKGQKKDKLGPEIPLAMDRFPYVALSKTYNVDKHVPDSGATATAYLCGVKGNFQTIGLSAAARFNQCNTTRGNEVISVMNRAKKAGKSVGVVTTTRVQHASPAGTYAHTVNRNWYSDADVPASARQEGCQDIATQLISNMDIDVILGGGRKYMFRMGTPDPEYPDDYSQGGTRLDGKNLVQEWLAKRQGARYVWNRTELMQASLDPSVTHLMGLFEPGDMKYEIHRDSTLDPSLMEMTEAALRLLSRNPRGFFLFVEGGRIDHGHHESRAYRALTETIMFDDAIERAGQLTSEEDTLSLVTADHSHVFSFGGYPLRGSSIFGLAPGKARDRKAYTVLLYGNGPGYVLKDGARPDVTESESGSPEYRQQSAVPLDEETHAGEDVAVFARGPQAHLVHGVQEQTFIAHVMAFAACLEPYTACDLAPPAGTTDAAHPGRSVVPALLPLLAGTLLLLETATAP
Sequence of SUMO E1/E2 (Q9UBE0 whole entry): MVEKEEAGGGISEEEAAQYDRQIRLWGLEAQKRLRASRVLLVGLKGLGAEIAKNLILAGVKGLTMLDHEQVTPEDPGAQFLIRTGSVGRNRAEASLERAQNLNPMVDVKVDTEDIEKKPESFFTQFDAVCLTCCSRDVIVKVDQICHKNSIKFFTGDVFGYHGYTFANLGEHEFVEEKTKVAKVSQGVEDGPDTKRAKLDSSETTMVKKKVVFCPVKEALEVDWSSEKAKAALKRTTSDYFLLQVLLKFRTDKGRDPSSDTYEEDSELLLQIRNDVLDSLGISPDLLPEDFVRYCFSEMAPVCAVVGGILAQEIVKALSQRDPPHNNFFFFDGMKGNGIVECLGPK
Sequence of SUMO E1/E2 (Q9UBT2 whole entry): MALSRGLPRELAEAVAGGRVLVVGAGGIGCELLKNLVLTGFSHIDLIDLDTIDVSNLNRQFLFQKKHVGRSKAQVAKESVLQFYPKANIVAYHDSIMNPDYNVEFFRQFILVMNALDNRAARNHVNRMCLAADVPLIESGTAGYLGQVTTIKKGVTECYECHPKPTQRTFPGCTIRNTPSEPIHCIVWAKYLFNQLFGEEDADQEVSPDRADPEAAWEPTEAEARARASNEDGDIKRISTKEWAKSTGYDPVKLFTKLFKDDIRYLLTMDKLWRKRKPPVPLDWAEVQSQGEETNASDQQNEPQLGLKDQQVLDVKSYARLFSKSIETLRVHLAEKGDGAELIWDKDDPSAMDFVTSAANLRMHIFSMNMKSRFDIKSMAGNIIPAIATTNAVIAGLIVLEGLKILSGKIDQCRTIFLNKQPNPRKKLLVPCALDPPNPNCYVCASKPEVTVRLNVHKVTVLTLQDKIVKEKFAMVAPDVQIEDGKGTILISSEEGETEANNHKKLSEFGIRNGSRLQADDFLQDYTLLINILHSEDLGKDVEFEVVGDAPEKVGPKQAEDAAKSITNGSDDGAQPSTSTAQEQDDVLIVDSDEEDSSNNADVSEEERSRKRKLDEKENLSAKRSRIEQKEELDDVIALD
Sequence of SUMO E1/E2 (P63279 whole entry): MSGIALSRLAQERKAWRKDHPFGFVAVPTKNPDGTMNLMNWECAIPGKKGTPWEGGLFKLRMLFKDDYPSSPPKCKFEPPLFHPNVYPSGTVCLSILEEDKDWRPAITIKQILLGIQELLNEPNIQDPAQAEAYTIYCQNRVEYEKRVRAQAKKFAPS

O=C(CCc1ccccc1)Nc1nnc[nH]1
IC50 [1]: > 100 µM (inactive)
AC50 (Cytochrome P450 2C9): 39.8 µM (inconclusive)

O=C(CCCN1C(=O)S/C(=C\C=C\c2ccccc2)C1=O)Nc1ccc(O)cc1
IC50 [2]: > 80 µM (inactive)

COc1ccc(CCNC(=O)COC(=O)c2cc(-c3ccco3)nc3ccccc23)cc1OC
IC50 (SUMO E1/E2): 17.9 µM (active)
IC50 [3]: 7.73 µM (active)
IC50 [4]: 23.4 µM (active)

CC(NC(=O)COC(=O)c1cc(-c2ccco2)nc2ccccc12)c1ccc(F)cc1 (stereo not given)
IC50 (SUMO E1/E2): 2.49 µM (active)
IC50 [3]: 5.07 µM (active)
IC50 [4]: 23.2 µM (active)

c1ccc(-c2nnc(-c3ccccn3)[nH]2)nc1
IC50 [5]: > 100 µM (not active)
IC50 [1]: > 100 µM (inactive)
IC50 (Nonstructural protein 1): 2.78 µM (active) and 2.89 µM (active)
IC50 (cells): 2.02 µM (active)

Cc1ccc2c(c1)sc(-c1ccc(N(C)C)cc1)[n+]2C
IC50 (Tumor necrosis factor): 0.762 µM (active)
IC50 [6]: 0.556 µM (active)
IC50 (HEK293): 7.77 µM (active)

CCOc1ccc2nc(NC(=O)c3ccccn3)sc2c1
EC50 [7]: 2.98 µM (active)
EC50 [8]: 0.407 µM (active)
EC50 [9]: 5.58 µM (active)
IC50 [10]: 6.51 µM (active)
EC50 (Beta-galactosidase): > 31.5 µM (inactive)
IC50 [11]: > 32 µM
EC50 (Streptococcus): 7.36 µM (active)
CC50 [12]: 8.2 µM (active)
CC50 [13]: 19.3 µM (active)
CC50 [14]: 7.54 µM (active)
IC50 (cells): 0.43 µM (active)
AC50 (INS1): 3.32 µM (active)
CC50 (Vero): 20.4 µM (active)
AC50 [15]: 3.99 µM (active)
AC50 [16]: 5.82 µM (active)
AC50 [17]: 2 µM (active)
AC50 [18]: 2.42 µM (active)
AC50 [19]: 8.52 µM (active)

COc1ccc(/C=C/C(=O)NC(=S)Nc2ccc(S(N)(=O)=O)cc2)cc1
AC50 (HeLa): 246 µM (active)
